“And” between values parts separate entries of the source, which are not always exact repeats. Equal entries are not always repeated.
System: VA-ES-BJ tumor spheroid viability
Test: Anticancer human tumor VA-ES-BJ cell line growth inhibition;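 further: spheroids exposed to compounds for seven days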;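 on viability, T/C: percent of DMSO vehicle control viability so 100% = untreated growth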
Conditions: spheroids with HUVEC and MSC; for viability, T/C: stronger effect = lower value
From the text: Multicellular complex tumor spheroid response to DNA repair inhibitors in combination with DNA-damaging drugs
This study explores the anticancer activities of DNA-damaging drugs and inhibitors of DNA damage repair, both as single agents and in combinations. Complex tumor spheroids comprised of malignant cells, endothelial cells and mesenchymal stem cells served as an in vitro model for human solid tumors. This model system incorporates physiologically relevant features and patient-derived or established malignant cell lines with clinically relevant genetic alterations from many tumor types. Twenty-six patient-derived or established malignant cell lines were evaluated representing sarcoma, melanoma, small cell lung cancer (SCLC), non-small cell lung cancer (NSCLC), as well as bladder, ovarian and pancreatic cancers. The concentration ranges selected for each drug and investigational agent were based upon clinically achievable concentrations if the clinical Cmax of the agent was known.
Compounds. The drugs and compounds olaparib (NSC753686), talazoparib (NSC767125), berzosertib (NSC777718), elimusertib (NSC800525), nedisertib (NSC802822), VX-984 (NSC792969), AZD-1390 (NSC803789), temozolomide (NSC362856), topotecan (NSC609699), trabectedin (NSC813783), staurosporine (NSC755774), and gemcitabine (NSC613327) were obtained from the National Cancer Institute (NCI) Developmental Therapeutics Program Chemical Repository. The FDA-approved anticancer drug set is available from the Developmental Therapeutics Program at https://dtp.cancer.gov/organization/dscb/obtaining/available_plates.htm. […] The stock solutions were prepared in dimethyl sulfoxide (DMSO, Sigma-Aldrich, St. Louis, MO, cat. D2650) at 400-fold the tested concentration and stored at -70 degrees C. Prior to their use, the stock solutions were diluted in fresh medium and the final DMSO concentration in the assay was 0.25% (v/v). All drugs and investigational agents were tested over a range starting from a high concentration at or near the clinical Cmax and decreasing in half-log increments. If the clinical Cmax for an agent had not been determined, the highest concentration tested was 10 microM.
Cell Lines. The patient-derived cancer cell (PDC) lines: 156681-154-R-J1-PDC, 283228-195-R-J1-PDC, 287954-098-R-J1-PDC, 292921-168-R-J2-PDC, 349418-098-R-PDC, 425362-245-T-J1-PDC, 556581-035-R-J1-PDC, and BL0293-F563-PDC were received from the NCI Patient-Derived Models Repository (PDMR, https://pdmr.cancer.gov). The established cell lines HS-SY-2 (RRID:CVCL_8719), MPNST, and SYO-1 (RRID:CVCL_7146) were obtained from the Sloan Kettering Institute. The alveolar soft parts sarcoma cell line ASPS-1 (RRID:CVCL_S738) was established at the NCI and grown from internal seed stocks. The following established cell lines were purchased from the American Type Culture Collection (ATCC, Manassas, VA): G-401 (ATCC, cat. CRL-1441, RRID:CVCL_0270), SW982 (ATCC, cat. HTB-93, RRID:CVCL_1734), VA-ES-BJ (ATCC, cat. CRL-2138, RRID:CVCL_1785), NCI-H719 (ATCC, cat. CRL-5837, RRID:CVCL_1582), NCI-H196 (ATCC, cat. CRL-5823, RRID:CVCL_1509), NCI-H841 (ATCC, cat. CRL-5845, RRID:CVCL_1595), NCI-H1618 (ATCC, cat. CRL-5879, RRID:CVCL_1480), NCI-H1876 (ATCC, cat. CRL-5902, RRID:CVCL_1503), DMS 114 (ATCC, cat. CRL-2066; RRID:CVCL_1174), NCI-H211 (ATCC, cat. CRL-5824; RRID:CVCL_1529), and SW 1271 (ATCC, cat. CRL-2177, RRID:CVCL_1716). The small cell lung cancer cell line COR-L88 was purchased from Sigma-Aldrich (cat. 92031917-1VL, RRID:CVCL_1141). The non-small cell lung cancer cell lines NCI-H226 (RRID:CVCL_1544) and NCI-H322M (RRID:CVCL_1557) were established at the NCI and grown from internal seed stocks. Pooled donor human umbilical vein endothelial cells (HUVEC, Lonza, cat. CC-2519) and human mesenchymal stem cells (hMSC, Lonza, cat. PT-2501) were purchased from Lonza (Walkersville, MD).
Cell Culture. All cells were maintained in an incubator at 37 degrees C and 5% CO2 with 95% humidity. […]

SMILES: CC1COCCN1c1cc(-c2ccnn2C)c2ccnc(-c3ccn[nH]3)c2n1 (stereo not given)
- viability, T/C (compound 0.0316 µM): 9.71% and 87.1% and 84.4%
- viability, T/C (compound 0.316 µM): 9.14% and 23.2% and 30.3%
- viability, T/C (compound 1 µM): 5.45% and 9.1% and 11%
- viability, T/C (compound 3.16 µM): 5.18% and 6.34% and 6.93%
- viability, T/C (compound 10 µM): 4.89% and 6.26% and 6.35%
- IC50 (curve of compound): < 0.0316 µM and 0.11 µM and 0.153 µM

SMILES: COc1ccc([C@@H](O)c2cc(-c3ncnc4cc(N5CCOCC5)ccc34)c(F)cc2Cl)nn1
- viability, T/C (compound 0.0316 µM): 99.7% and 97.1% and 92.4%
- viability, T/C (compound 0.1 µM): 113% and 95.6% and 88.6%
- viability, T/C (compound 0.316 µM): 71.4% and 65.5% and 79.8%
- viability, T/C (compound 1 µM): 45.9% and 32.2% and 52%
- viability, T/C (compound 3.16 µM): 17.3% and 11.2% and 21.3%
- viability, T/C (compound 10 µM): 10.2% and 6.84% and 8.9%
- IC50 (curve of compound): 0.78 µM and 0.549 µM and 1.08 µM

SMILES: Cn1ncnc1[C@H]1c2n[nH]c(=O)c3cc(F)cc(c23)N[C@@H]1c1ccc(F)cc1
- viability, T/C (compound 0.00949 µM): 82.2% and 101% and 87.7%
- viability, T/C (compound 0.03 µM): 81.7% and 78.2% and 85.3%
- viability, T/C (compound 0.0949 µM): 68.5% and 82.6% and 74.7%
- viability, T/C (compound 0.3 µM): 55.8% and 65.9% and 58.5%
- viability, T/C (compound 0.949 µM): 33.7% and 41.4% and 36%
- viability, T/C (compound 3 µM): 7.23% and 7.48% and 6.56%
- IC50 (curve of compound): 0.4 µM and 0.619 µM and 0.469 µM

SMILES: CNCc1ccc(-c2cc(-c3nc(-c4ccc(S(=O)(=O)C(C)C)cc4)cnc3N)on2)cc1 + CC[C@@]1(O)C(=O)OCc2c1cc1n(c2=O)Cc2cc3c(CN(C)C)c(O)ccc3nc2-1
- IC50 (curve of first compound, second compound 0.003 µM): 0.258 µM
- IC50 (curve of first compound, second compound 0.00949 µM): 0.139 µM
- IC50 (curve of first compound, second compound 0.03 µM): < 0.00949 µM
- IC50 (curve of first compound, second compound 0.0949 µM): < 0.00949 µM
- IC50 (curve of first compound, second compound 0.3 µM): < 0.00949 µM
- viability, T/C (second compound 0.003 µM, first compound 0.00949 µM): 90.9%
- viability, T/C (second compound 0.003 µM, first compound 0.03 µM): 83%
- viability, T/C (second compound 0.003 µM, first compound 0.0949 µM): 71.7%
- viability, T/C (second compound 0.003 µM, first compound 0.3 µM): 49.4%
- viability, T/C (second compound 0.003 µM, first compound 0.949 µM): 15.1%
- viability, T/C (second compound 0.003 µM, first compound 3 µM): 6.06%
- viability, T/C (second compound 0.00949 µM, first compound 0.00949 µM): 86.5%
- viability, T/C (second compound 0.00949 µM, first compound 0.03 µM): 81.1%
- viability, T/C (second compound 0.00949 µM, first compound 0.0949 µM): 59%
- viability, T/C (second compound 0.00949 µM, first compound 0.3 µM): 30.7%
- viability, T/C (second compound 0.00949 µM, first compound 0.949 µM): 12.4%
- viability, T/C (second compound 0.00949 µM, first compound 3 µM): 4.37%
- viability, T/C (second compound 0.03 µM, first compound 0.00949 µM): 42.3%
- viability, T/C (second compound 0.03 µM, first compound 0.03 µM): 42.3%
- viability, T/C (second compound 0.03 µM, first compound 0.0949 µM): 38.1%
- viability, T/C (second compound 0.03 µM, first compound 0.3 µM): 27.9%
- viability, T/C (second compound 0.03 µM, first compound 0.949 µM): 9.05%
- viability, T/C (second compound 0.03 µM, first compound 3 µM): 3.26%
- viability, T/C (second compound 0.0949 µM, first compound 0.00949 µM): 8.5%
- viability, T/C (second compound 0.0949 µM, first compound 0.03 µM): 10%
- viability, T/C (second compound 0.0949 µM, first compound 0.0949 µM): 13.8%
- viability, T/C (second compound 0.0949 µM, first compound 0.3 µM): 10.3%
- viability, T/C (second compound 0.0949 µM, first compound 0.949 µM): 5.27%
- viability, T/C (second compound 0.0949 µM, first compound 3 µM): 2.78%
- viability, T/C (second compound 0.3 µM, first compound 0.00949 µM): 4.36%
- viability, T/C (second compound 0.3 µM, first compound 0.03 µM): 5.51%
- viability, T/C (second compound 0.3 µM, first compound 0.0949 µM): 5.44%
- viability, T/C (second compound 0.3 µM, first compound 0.3 µM): 4.99%
- viability, T/C (second compound 0.3 µM, first compound 0.949 µM): 4.31%
- viability, T/C (second compound 0.3 µM, first compound 3 µM): 3.27%

SMILES: Cn1nnc2c(C(N)=O)ncn2c1=O
- viability, T/C (compound 1 µM): 104% [middle of 10 runs]
- viability, T/C (compound 3.16 µM): 103% [middle of 10 runs]
- viability, T/C (compound 10 µM): 107% [middle of 10 runs]
- viability, T/C (compound 100 µM): 104% [middle of 10 runs]
- IC50 (compound alone, run of 12/02/2019): > 100 µM

From PubChem BioAssay AID1845217 (Molecular Pharmacology Branch, DTP, NCI, 2023)
